Experimental data from PubChem BioAssay AID1963851 (Molecular Pharmacology Branch, DTP, NCI, 2024).

System: 188146-221-R-J1-PDC complex spheroid viability
Experiment: Anticancer human tumor 188146-221-R-J1-PDC patient-derived colon adenocarcinoma cell line growth inhibition [POLQ]
Conditions: for IC50: curve of first compound; for viability, T/C: stronger effect = lower value
Method: Multicellular complex tumor spheroid response to Polymerase (POL) inhibitors (novobiocin, ART-558, RP6685) in combination with a variety of drugs and investigational agents in selected tumor cell lines
The POL inhibitors (novobiocin, ART-558, and RP6685) were evaluated both individually and in combination with standard of care and investigational anticancer small molecules within a complex spheroid model of solid tumors. . Complex spheroids include a stromal component modeled by human endothelial cells (HUVEC) and fibroblasts modeled by human mesenchymal stem cells (MSCs). The concentration ranges selected for each drug and investigational agent were based upon clinically achievable concentrations if the clinical Cmax of the agent was known.
Compounds. The drugs and investigational agents: novobiocin (NSC847541), ART-558 (NSC835418), RP-6685 (NSC848927), peposertib (NSC802822), ceralasertib (NSC780249), elimusertib (NSC800525), camonsertib (NSC841442), AZD-1390 (NSC803789), olaparib (NSC753686), talazoparib (NSC767125), rucaparib (NSC756644), sotorasib (NSC818433), MRTX-1133 (NSC836407), SN-38 (NSC673596), topotecan (NSC609699), epotoside (NSC141540), doxorubicin (NSC123127), gemcitabine (NSC613327), 5-fluorouracil (NSC19893), paclitaxel (NSC125973), vemurafenib (NSC761431), MSA-2 (NSC828583), SN-011 (NSC837082), adavosertib (NSC754352), prexasertib (NSC758257), carboplatin (NSC241240) and oxaliplatin (NSC266046), were obtained from the National Cancer Institute (NCI) Developmental Therapeutics Program Chemical Repository (21). The FDA-approved anticancer drug set is available from the Developmental Therapeutics Program at https://dtp.cancer.gov/organization/dscb/obtaining/. […] The stock solutions were prepared in dimethyl sulfoxide (DMSO, Sigma-Aldrich, St. Louis, MO, cat. D2650), except for the platinum compounds which were prepared in saline (Quality Biological, Gaithersburg, MD, cat. 114-055-101), at 800-fold the tested concentration and stored at -70 degrees C prior to their use. All drugs and investigational agents were tested over a range starting from a high concentration at or near the clinical Cmax and decreasing in half-log increments. If the clinical Cmax for an agent had not been determined, the highest concentration tested was 10 microM, except for SN-38, which was tested at a high concentration of 1 microM.
Cell Culture. All cells were maintained in an incubator at 37 degrees C and 5% CO2 with 95% humidity. The PDC lines were cultured according to standard operating procedures established by the NCI PDMR (https://pdmr.cancer.gov). Table 3 of the manuscript, lists the cell lines along with the number of the three cell types plated to form the mct-spheroids and media for tumor cell growth. After thawing, all PDC lines, except 997537-175-T-J1-PDC and 415267-285-R-J2-PDC, were cultured in Matrigel-coated flasks prepared with a working solution of 1X Ham's F-12 nutrient mix, without supplementation (Thermo Fisher Scientific, cat. 11765054), 100 U/mL penicillin-streptomycin (Thermo Fisher Scientific, cat. 15140122), and 2.5% Matrigel (Corning Inc., Corning, NY, cat. 354248) for the first three passages. The two PDC lines 997537-175-T-J1-PDC and 415267-285-R-J2-PDC were cultured on uncoated flasks. The 857933-349-R-J2-PDC line was cultured in 6C/Colon 1B media containing advanced DMEM/F-12 (Thermo Fisher Scientific, cat. 12634028), 10 mM HEPES (Thermo Fisher Scientific, cat. 15630080), 1X GlutaMAX supplement (Thermo Fisher Scientific, cat. 35050061), 0.1 mg/mL primocin (InvivoGen, San Diego, CA, cat. ant-pm-2), 10% defined fetal bovine serum, heat inactivated (HyClone Laboratories Inc., Logan, UT, cat. SH30070.03HI), 50% L-WRN conditioned media (ATCC, cat. CRL-3276), 1.25 mM N-Acetyl-L-cysteine (Sigma-Aldrich, cat. A9165), 10 mM nicotinamide (Sigma-Aldrich, cat. N0636), 1X B-27 supplement (Thermo Fisher Scientific, cat. 17504044), 1X N-2 supplement (Thermo Fisher Scientific, cat. […]

[1] = second compound 0.0316 µM, first compound 0.0316 µM
[2] = second compound 0.0316 µM, first compound 0.1 µM
[3] = second compound 0.0316 µM, first compound 0.316 µM
[4] = second compound 0.0316 µM, first compound 1 µM
[5] = second compound 0.0316 µM, first compound 3.16 µM
[6] = second compound 0.0316 µM, first compound 10 µM
[7] = second compound 0.1 µM, first compound 0.0316 µM
[8] = second compound 0.1 µM, first compound 0.1 µM
[9] = second compound 0.1 µM, first compound 0.316 µM
[10] = second compound 0.1 µM, first compound 1 µM
[11] = second compound 0.1 µM, first compound 3.16 µM
[12] = second compound 0.1 µM, first compound 10 µM
[13] = second compound 0.316 µM, first compound 0.0316 µM
[14] = second compound 0.316 µM, first compound 0.1 µM
[15] = second compound 0.316 µM, first compound 0.316 µM
[16] = second compound 0.316 µM, first compound 1 µM
[17] = second compound 0.316 µM, first compound 3.16 µM
[18] = second compound 0.316 µM, first compound 10 µM
[19] = second compound 1 µM, first compound 0.0316 µM
[20] = second compound 1 µM, first compound 0.1 µM
[21] = second compound 1 µM, first compound 0.316 µM
[22] = second compound 1 µM, first compound 1 µM
[23] = second compound 1 µM, first compound 3.16 µM
[24] = second compound 1 µM, first compound 10 µM
[25] = second compound 3.16 µM, first compound 0.0316 µM
[26] = second compound 3.16 µM, first compound 0.1 µM
[27] = second compound 3.16 µM, first compound 0.316 µM
[28] = second compound 3.16 µM, first compound 1 µM
[29] = second compound 3.16 µM, first compound 3.16 µM
[30] = second compound 3.16 µM, first compound 10 µM
[31] = second compound 10 µM, first compound 0.0316 µM
[32] = second compound 10 µM, first compound 0.1 µM
[33] = second compound 10 µM, first compound 0.316 µM
[34] = second compound 10 µM, first compound 1 µM
[35] = second compound 10 µM, first compound 3.16 µM
[36] = second compound 10 µM, first compound 10 µM
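Note: spheroids exposed to compounds for seven days.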
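Throughout, for viability, T/C: 100% = DMSO vehicle control viability.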

For `CNCc1ccc(-c2[nH]c3cc(F)cc4c3c2CCNC4=O)cc1` + Cc1cccc(N(C)C(=O)C2C(O)CCN2c2nc(C)cc(C(F)(F)F)c2C#N)c1, the IC50 (second compound 0.0316 µM) was over 10000 nM, the IC50 (second compound 0.1 µM) was over 10000 nM and the IC50 (second compound 0.316 µM) was over 10000 nM. For the same compound, the IC50 (second compound 1 µM) was over 10000 nM, the IC50 (second compound 3.16 µM) was over 10000 nM and the IC50 (second compound 10 µM) was over 10000 nM. For the same compound, the viability, T/C [1] was 98.6%, the viability, T/C [2] was 103% and the viability, T/C [3] was 101%. It also gave a viability, T/C [4] of 97.3%, a viability, T/C [5] of 114% and a viability, T/C [6] of 105%. The viability, T/C [7] was 108%, the viability, T/C [8] was 98.6% and the viability, T/C [9] was 102%. The viability, T/C [10] was 104%, the viability, T/C [11] was 108% and the viability, T/C [12] was 112%. It also gave a viability, T/C [13] of 112%, a viability, T/C [14] of 105% and a viability, T/C [15] of 106%. For the same compound, the viability, T/C [16] was 103%, the viability, T/C [17] was 106% and the viability, T/C [18] was 108%. It also gave a viability, T/C [19] of 109%, a viability, T/C [20] of 103% and a viability, T/C [21] of 97.7%. It also gave a viability, T/C [22] of 109%, a viability, T/C [23] of 100% and a viability, T/C [24] of 110%. For the same compound, the viability, T/C [25] was 112%, the viability, T/C [26] was 112% and the viability, T/C [27] was 95.1%. It also gave a viability, T/C [28] of 84.1%, a viability, T/C [29] of 112% and a viability, T/C [30] of 110%. For the same compound, the viability, T/C [31] was 99.4%, the viability, T/C [32] was 83.2% and the viability, T/C [33] was 100%. The viability, T/C [34] was 93.8%, the viability, T/C [35] was 106% and the viability, T/C [36] was 101%.
In the case of `COc1cccc2c1C(=O)c1c(O)c3c(c(O)c1C2=O)CC(O)(C(=O)CO)CC3OC1CC(N)C(O)C(C)O1` (stereo unspecified) + Cc1cccc(N(C)C(=O)C2C(O)CCN2c2nc(C)cc(C(F)(F)F)c2C#N)c1, the IC50 (second compound 0.0316 µM) is reported as 102 nM, the IC50 (second compound 0.1 µM) is reported as 146 nM and the IC50 (second compound 0.316 µM) is reported as 117 nM. For the same compound, the IC50 (second compound 1 µM) was 117 nM, the IC50 (second compound 3.16 µM) was 97.9 nM and the IC50 (second compound 10 µM) was 75.4 nM. It also gave a viability, T/C [1] of 83.8%, a viability, T/C [2] of 48% and a viability, T/C [3] of 31.3%. It also gave a viability, T/C [4] of 9.29%, a viability, T/C [5] of 0.34% and a viability, T/C [6] of 0.84%. The viability, T/C [7] was 75.1%, the viability, T/C [8] was 56.8% and the viability, T/C [9] was 34.5%. It also gave a viability, T/C [10] of 8.42%, a viability, T/C [11] of 0.28% and a viability, T/C [12] of 0.45%. It also gave a viability, T/C [13] of 81%, a viability, T/C [14] of 48.9% and a viability, T/C [15] of 36.7%. The viability, T/C [16] was 10%, the viability, T/C [17] was 0.19% and the viability, T/C [18] was 0.47%. The viability, T/C [19] was 74%, the viability, T/C [20] was 51% and the viability, T/C [21] was 32.6%. It also gave a viability, T/C [22] of 10.9%, a viability, T/C [23] of 0.17% and a viability, T/C [24] of 0.44%. The viability, T/C [25] was 69.8%, the viability, T/C [26] was 47.2% and the viability, T/C [27] was 29.8%. For the same compound, the viability, T/C [28] was 6.51%, the viability, T/C [29] was 0.32% and the viability, T/C [30] was 0.65%. It also gave a viability, T/C [31] of 74.8%, a viability, T/C [32] of 39.5% and a viability, T/C [33] of 26.4%. For the same compound, the viability, T/C [34] was 3.83%, the viability, T/C [35] was 0.3% and the viability, T/C [36] was 0.64%.
In the case of `O=c1[nH]cc(F)c(=O)[nH]1` + Cc1cccc(N(C)C(=O)C2C(O)CCN2c2nc(C)cc(C(F)(F)F)c2C#N)c1, the IC50 (second compound 0.0316 µM) is reported as 2440 nM, the IC50 (second compound 0.1 µM) is reported as 1380 nM and the IC50 (second compound 0.316 µM) is reported as 1820 nM. It also gave an IC50 (second compound 1 µM) of 1680 nM, an IC50 (second compound 3.16 µM) of 1340 nM and an IC50 (second compound 10 µM) of 1690 nM. The viability, T/C [1] was 107%, the viability, T/C [2] was 91.7% and the viability, T/C [3] was 73.5%. For the same compound, the viability, T/C [4] was 57.7%, the viability, T/C [5] was 50.8% and the viability, T/C [6] was 34.5%. The viability, T/C [7] was 102%, the viability, T/C [8] was 96.7% and the viability, T/C [9] was 73.9%. It also gave a viability, T/C [10] of 52.6%, a viability, T/C [11] of 45% and a viability, T/C [12] of 37%. The viability, T/C [13] was 93%, the viability, T/C [14] was 87% and the viability, T/C [15] was 80%. It also gave a viability, T/C [16] of 57%, a viability, T/C [17] of 43.5% and a viability, T/C [18] of 34.9%. For the same compound, the viability, T/C [19] was 79.8%, the viability, T/C [20] was 84.6% and the viability, T/C [21] was 74.3%. For the same compound, the viability, T/C [22] was 57.1%, the viability, T/C [23] was 41.7% and the viability, T/C [24] was 37.5%. For the same compound, the viability, T/C [25] was 90.2%, the viability, T/C [26] was 82.5% and the viability, T/C [27] was 72.9%. For the same compound, the viability, T/C [28] was 50.2%, the viability, T/C [29] was 44.7% and the viability, T/C [30] was 36.2%. It also gave a viability, T/C [31] of 91.1%, a viability, T/C [32] of 85.5% and a viability, T/C [33] of 76.6%. It also gave a viability, T/C [34] of 51.7%, a viability, T/C [35] of 47.9% and a viability, T/C [36] of 34.4%.
